Measurements reported in ChEMBL document CHEMBL1201862, “PubChem BioAssay data set” (2004).
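Following 48 hours of exposure in 96-well plates, responses at five concentrations were used to interpolate endpoints linearly. The concentration for 50% growth inhibition is given as GI50.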 The source made the active and inactive calls. Cut-off read from the data, not from the text of the source: active = GI50 up to about 1.1 µM and inactive = higher.

What was measured:
Assay in all cases: inhibition of tumour cell growth, NCI panel, 48 h
[1] = test system: SK-OV-3
[2] = test system: OVCAR-4
[3] = test system: 786-0
[4] = test system: NCI-H460
[5] = test system: UO-31
[6] = test system: TK-10
[7] = test system: A549
[8] = test system: BT-549
[9] = test system: MCF7
[10] = test system: MDA-MB-231
[11] = test system: CCRF-CEM
[12] = test system: OVCAR-5
[13] = test system: SF-539
[14] = test system: A498
[15] = test system: Hs-578T
[16] = test system: MDA-MB-435
[17] = test system: SW-620
[18] = test system: HL-60
[19] = test system: MDA-N
[20] = test system: SNB-19

Row | Structure (SMILES) | GI50 [1] | GI50 [2] | GI50 [3] | GI50 [4] | GI50 [5] | GI50 [6] | GI50 [7] | GI50 [8] | GI50 [9] | GI50 [10] | GI50 [11] | GI50 [12] | GI50 [13] | GI50 [14] | GI50 [15] | GI50 [16] | GI50 [17] | GI50 [18] | GI50 [19] | GI50 [20]
1 | Cc1ccc2occ/c(=N\Nc3ccccc3)c2c1 | 59.6 µM (inactive) | 13.2 µM (inactive) | 21.2 µM (inactive) | 56.9 µM (inactive) | 70.8 µM (inactive) | > 100 µM (inactive) | 57 µM (inactive) | > 100 µM (inactive) | 40.2 µM (inactive) | 88.5 µM (inactive) | > 100 µM (inactive) | 59.4 µM (inactive) | > 100 µM (inactive) | 76.6 µM (inactive) | 65.3 µM (inactive) | 17.9 µM (inactive) | > 100 µM (inactive) | > 100 µM (inactive) | 65.9 µM (inactive) | > 100 µM (inactive)
2 | CC1=NN(C(=O)c2ccccc2O)C(=O)/C1=C/c1ccc([N+](=O)[O-])cc1 | 0.0966 µM (active) | 0.482 µM (active) | 0.299 µM (active) | 0.114 µM (active) | 0.103 µM (active) | > 24.2 µM (inactive) | 0.0931 µM (active) | 0.328 µM (active) | 0.726 µM (active) | 26.9 µM (inactive) | 0.407 µM (active) | 3.12 µM (inactive) | 0.0951 µM (active) | 0.0419 µM (active) | 0.348 µM (active) | 0.106 µM (active) | 0.738 µM (active) | 0.508 µM (active) | 0.413 µM (active) | 0.0782 µM (active)
3 | COC(=O)[C@@H](OC(C)=O)[C@@H](OC(C)=O)c1nnc2ccc(Cl)nn12 | > 100 µM (inactive) | > 100 µM (inactive) | > 100 µM (inactive) | > 100 µM (inactive) |  | > 100 µM (inactive) | > 100 µM (inactive) | > 100 µM (inactive) | > 100 µM (inactive) | > 100 µM (inactive) | > 100 µM (inactive) | > 100 µM (inactive) | > 100 µM (inactive) | > 100 µM (inactive) | > 100 µM (inactive) | > 100 µM (inactive) | > 100 µM (inactive) | > 100 µM (inactive) | > 100 µM (inactive) | > 100 µM (inactive)
4 | CCOC(=O)NNC(=O)NCc1ccccc1CNC(=O)NNC(=O)OCC | > 100 µM (inactive) | > 100 µM (inactive) | > 100 µM (inactive) | > 100 µM (inactive) | > 100 µM (inactive) | > 100 µM (inactive) | > 100 µM (inactive) | > 100 µM (inactive) | > 100 µM (inactive) | > 100 µM (inactive) | > 100 µM (inactive) | > 100 µM (inactive) | > 100 µM (inactive) | > 100 µM (inactive) | > 100 µM (inactive) | > 100 µM (inactive) | > 100 µM (inactive) | > 100 µM (inactive) | > 100 µM (inactive) | > 100 µM (inactive)
5 | N/C(=N/O)c1cn(C2OC(CO)C(O)C2O)c2ncnc(NO)c12 (configuration not stated) | < 0.02 µM (active) | 0.265 µM (active) | 0.0556 µM (active) | 0.112 µM (active) | 0.084 µM (active) | 0.0865 µM (active) | 0.126 µM (active) | 0.426 µM (active) | 0.144 µM (active) | 0.0344 µM (active) | 0.0165 µM (active) | 0.656 µM (active) | 0.117 µM (active) | 0.425 µM (active) | 1.01 µM (active) | 0.0962 µM (active) | 0.143 µM (active) | 0.166 µM (active) | 0.0407 µM (active) | 0.514 µM (active)
6 | Cc1c(CNc2ccc(C(=O)NC(CC(=O)O)C(=O)O)cc2)ccc2nc(N)nc(N)c12 (configuration not stated) | 0.146 µM (active) | > 100 µM (inactive) | < 0.164 µM (active) | < 0.01 µM (active) | < 0.018 µM (active) | 1.86 µM (inactive) | < 0.01 µM (active) | > 100 µM (inactive) | < 0.01 µM (active) | > 100 µM (inactive) | < 0.01 µM (active) |  | 0.0127 µM (active) | 0.219 µM (active) | 684 µM (inactive) | < 0.01 µM (active) | < 0.01 µM (active) | < 0.01 µM (active) | < 0.01 µM (active) | 
7 | C=CCN(C(=O)OC(C)(C)C)[C@H](C)C(=O)N[C@@H](C)C(=O)OC | > 100 µM (inactive) | > 100 µM (inactive) | > 100 µM (inactive) |  | > 100 µM (inactive) |  | > 100 µM (inactive) | > 100 µM (inactive) | > 100 µM (inactive) | > 100 µM (inactive) | 36 µM (inactive) | > 100 µM (inactive) | > 100 µM (inactive) | > 100 µM (inactive) | > 100 µM (inactive) | > 100 µM (inactive) | > 100 µM (inactive) | 1.2 µM (inactive) | > 100 µM (inactive) | > 100 µM (inactive)
8 | O=C1C(c2ccccc2)=C(c2ccccc2)C1(Cl)Cl | 15.8 µM (inactive) | 3.67 µM (inactive) | 2.69 µM (inactive) | 5.9 µM (inactive) | 3.61 µM (inactive) | 0.667 µM (active) | 11.4 µM (inactive) | 2.47 µM (inactive) | 2.61 µM (inactive) | 3.28 µM (inactive) | 1.01 µM (active) | 7.82 µM (inactive) | 3.05 µM (inactive) | 5.21 µM (inactive) | 3.56 µM (inactive) | 2.43 µM (inactive) | 2.75 µM (inactive) | 0.736 µM (active) | 2.02 µM (inactive) | 16.7 µM (inactive)
9 | NS(=O)(=O)c1ccc(/N=N/c2cc3ccccc3c(C(=O)O)c2O)cc1 | > 66.4 µM (inactive) | > 46.5 µM (inactive) | > 55.8 µM (inactive) | 10.5 µM (inactive) | > 49.8 µM (inactive) | > 47.4 µM (inactive) | > 52.7 µM (inactive) | 99.1 µM (inactive) | 2.68 µM (inactive) | > 52 µM (inactive) | 78 µM (inactive) | > 54.3 µM (inactive) | > 100 µM (inactive) | > 53.6 µM (inactive) | > 67.3 µM (inactive) | > 55.8 µM (inactive) | > 41.8 µM (inactive) | > 100 µM (inactive) | > 100 µM (inactive) | > 64.9 µM (inactive)
10 | Fc1ccc(Nc2nnc(-c3ccccn3)s2)cc1 | > 100 µM (inactive) | > 100 µM (inactive) | > 100 µM (inactive) | > 100 µM (inactive) |  | > 100 µM (inactive) | > 100 µM (inactive) | > 100 µM (inactive) | 3.47 µM (inactive) | > 100 µM (inactive) | > 100 µM (inactive) | > 100 µM (inactive) | > 100 µM (inactive) | > 100 µM (inactive) | > 100 µM (inactive) | > 100 µM (inactive) | > 100 µM (inactive) | > 100 µM (inactive) | > 100 µM (inactive) | > 100 µM (inactive)
11 | C(=N\c1ccc(-c2nc3ccccc3[nH]2)cc1)/c1cccs1 | > 100 µM (inactive) | > 100 µM (inactive) | > 100 µM (inactive) | > 100 µM (inactive) | 31.2 µM (inactive) | > 100 µM (inactive) | > 100 µM (inactive) | 27.4 µM (inactive) | 8.91 µM (inactive) | 51.4 µM (inactive) | 22 µM (inactive) | > 100 µM (inactive) | > 100 µM (inactive) | > 100 µM (inactive) | > 100 µM (inactive) | > 100 µM (inactive) | 96.4 µM (inactive) | 22 µM (inactive) | > 100 µM (inactive) | > 100 µM (inactive)
12 | CCOc1cc(C2SCC(=O)N2c2nc3cc4sc(N5C(=O)CSC5c5ccc(O)c(OCC)c5)nc4cc3s2)ccc1O (configuration not stated) | > 100 µM (inactive) | 48.4 µM (inactive) | 31.6 µM (inactive) | 2.37 µM (inactive) | 21.4 µM (inactive) | > 100 µM (inactive) | 6.98 µM (inactive) | 9.59 µM (inactive) | 9.86 µM (inactive) | > 48.5 µM (inactive) | 4.16 µM (inactive) | > 100 µM (inactive) | 15.7 µM (inactive) | 48.6 µM (inactive) | > 47.1 µM (inactive) | 29.9 µM (inactive) | 27.1 µM (inactive) | 61.2 µM (inactive) | 30.5 µM (inactive) | 41.3 µM (inactive)
13 | COC(CN(C(=O)c1ccccc1)C1CCC2(SCCS2)c2[nH]c3ccccc3c21)OC (configuration not stated) |  | 28.2 µM (inactive) | 37 µM (inactive) | 33.8 µM (inactive) | 16 µM (inactive) | 32.7 µM (inactive) | 30.7 µM (inactive) | 13.7 µM (inactive) | 32.1 µM (inactive) | 28.9 µM (inactive) | 44.2 µM (inactive) | 33.7 µM (inactive) | 63.1 µM (inactive) | 46.6 µM (inactive) | 75.2 µM (inactive) | 15.6 µM (inactive) | 33.3 µM (inactive) | 16.9 µM (inactive) | 12.9 µM (inactive) | 22.4 µM (inactive)
14 | CSC(=N/C=C/c1ccccc1)SC | > 100 µM (inactive) | > 100 µM (inactive) | > 100 µM (inactive) | > 100 µM (inactive) | > 100 µM (inactive) |  | 60.3 µM (inactive) | > 100 µM (inactive) | > 100 µM (inactive) | > 100 µM (inactive) | 98.9 µM (inactive) | > 100 µM (inactive) | > 100 µM (inactive) | > 100 µM (inactive) | 68.1 µM (inactive) | 76.7 µM (inactive) | > 100 µM (inactive) | 49.9 µM (inactive) | 55.6 µM (inactive) | > 100 µM (inactive)
